Earlier results in PMC10975502 (Methods in molecular biology (Clifton, N.J.), 2022).

Conditions: result in words

## cyclo(FfΦRrRrQ) [CPP12]
  activity in cytosolic delivery: high activity
